Laboratory results: PubChem BioAssay (NCI)
“And” between values parts separate entries of the source, which are not always exact repeats. Identical values can stand only once.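 Five compound concentrations were applied to cells in 96-well plates for 48 hours; endpoints were derived by simple linear interpolation of the resulting dose-response curve. The concentration for 50% growth inhibition is given as GI50. TGI denotes the concentration required for complete inhibition of growth.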

Experiments:
Experiment in all cases: NCI anticancer screen, dose series, 48 h
RXF 393 renal = system: RXF 393 renal
NCI-H460 lung = system: NCI-H460 lung
OVCAR-3 ovarian = system: OVCAR-3 ovarian
SK-OV-3 ovarian = system: SK-OV-3 ovarian
SW-620 colon = system: SW-620 colon
TK-10 renal = system: TK-10 renal
SK-MEL-28 melanoma = system: SK-MEL-28 melanoma
HCT-116 colon = system: HCT-116 colon
MOLT-4 leukemia = system: MOLT-4 leukemia
IGROV1 ovarian = system: IGROV1 ovarian

CCOC(=O)c1ccc(Nc2sc(C(=O)c3cccc([N+](=O)[O-])c3)c(N)c2C#N)cc1
GI50 (RXF 393 renal): 0.167 µM | TGI (RXF 393 renal): 24.8 µM | GI50 (NCI-H460 lung): 0.0519 µM | TGI (NCI-H460 lung): 4.14 µM | GI50 (OVCAR-3 ovarian): 0.0218 µM | TGI (OVCAR-3 ovarian): 0.0617 µM | GI50 (SK-OV-3 ovarian): 0.181 µM | TGI (SK-OV-3 ovarian): 18.6 µM | GI50 (SW-620 colon): 0.0591 µM | TGI (SW-620 colon): 6.63 µM | GI50 (TK-10 renal): 0.192 µM | TGI (TK-10 renal): 17.3 µM | GI50 (SK-MEL-28 melanoma): 8.32 µM | TGI (SK-MEL-28 melanoma): > 59.9 µM | GI50 (HCT-116 colon): 0.0505 µM | TGI (HCT-116 colon): 4.17 µM | GI50 (MOLT-4 leukemia): 0.203 µM | TGI (MOLT-4 leukemia): 6.59 µM | GI50 (IGROV1 ovarian): 0.0244 µM | TGI (IGROV1 ovarian): 26 µM

C/C(=N\NC(=O)c1ccccc1O)c1cccc(/C(C)=N/NC(=O)c2ccccc2O)n1
GI50 (RXF 393 renal): 5.38 µM | TGI (RXF 393 renal): 32.5 µM and 30.6 µM | GI50 (NCI-H460 lung): 0.535 µM | TGI (NCI-H460 lung): 74.1 µM and > 100 µM | GI50 (OVCAR-3 ovarian): 1.06 µM and 0.362 µM | TGI (OVCAR-3 ovarian): 24.3 µM and > 53.5 µM | GI50 (SK-OV-3 ovarian): 1.31 µM | TGI (SK-OV-3 ovarian): 36.3 µM and > 100 µM | GI50 (SW-620 colon): 0.632 µM | TGI (SW-620 colon): > 100 µM | GI50 (TK-10 renal): 0.614 µM | TGI (TK-10 renal): > 80.6 µM | GI50 (SK-MEL-28 melanoma): 24.4 µM and > 100 µM | TGI (SK-MEL-28 melanoma): > 100 µM | GI50 (HCT-116 colon): 5.85 µM and 0.619 µM | TGI (HCT-116 colon): 66.9 µM and 28.4 µM | GI50 (MOLT-4 leukemia): 0.424 µM | TGI (MOLT-4 leukemia): 17.5 µM and > 100 µM | GI50 (IGROV1 ovarian): 2.4 µM and 15.4 µM | TGI (IGROV1 ovarian): 43.8 µM and > 100 µM

Nc1c(C(=O)c2cccc(C#CCN3CCOCC3)c2)cnn1-c1ccc(F)cc1
GI50 (RXF 393 renal): > 25 µM | TGI (RXF 393 renal): > 25 µM | GI50 (NCI-H460 lung): > 16.5 µM | TGI (NCI-H460 lung): > 25 µM | GI50 (OVCAR-3 ovarian): > 23.1 µM | TGI (OVCAR-3 ovarian): > 25 µM | GI50 (SK-OV-3 ovarian): > 25 µM | TGI (SK-OV-3 ovarian): > 25 µM | GI50 (SW-620 colon): 9.28 µM | TGI (SW-620 colon): > 25 µM | GI50 (TK-10 renal): > 23.4 µM | TGI (TK-10 renal): > 25 µM | GI50 (SK-MEL-28 melanoma): > 25 µM | TGI (SK-MEL-28 melanoma): > 25 µM | GI50 (HCT-116 colon): > 22.8 µM | TGI (HCT-116 colon): > 25 µM | GI50 (MOLT-4 leukemia): > 25 µM | TGI (MOLT-4 leukemia): > 25 µM | GI50 (IGROV1 ovarian): > 17.2 µM | TGI (IGROV1 ovarian): > 25 µM
